The structures appear in SMILES notation. pIC50: −log10 of the molar value.

In general, pIC50 refers to the negative decadic logarithm of the IC50, by convention in mol/L.

For the first assay, the target named is T1, human P2Y12 receptor (Homo sapiens, UniProt Q9H244).
T1 construct: expressed in transfected cells; host or cells: CHO cells (membrane preparation)
T1 sequence (Q9H244 whole entry): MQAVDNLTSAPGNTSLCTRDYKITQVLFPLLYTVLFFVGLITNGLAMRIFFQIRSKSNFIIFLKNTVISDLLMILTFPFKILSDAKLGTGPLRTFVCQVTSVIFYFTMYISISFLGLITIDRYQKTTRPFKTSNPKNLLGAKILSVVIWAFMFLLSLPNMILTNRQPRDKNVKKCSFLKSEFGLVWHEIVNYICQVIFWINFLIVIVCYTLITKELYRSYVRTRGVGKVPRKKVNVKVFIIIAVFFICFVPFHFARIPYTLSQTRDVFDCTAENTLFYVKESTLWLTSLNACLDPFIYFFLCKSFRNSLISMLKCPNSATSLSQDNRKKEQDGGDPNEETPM
The assay can be described thus: Human P2Y12 recombinant cell membrane binding assay. The note with it: competition against 33P 2MeS-ADP; CHO cell membranes with recombinant human P2Y12 receptor. Here is the method:
The ability of the compounds of the formula I to inhibit the P2Y12 receptor can be assessed by determining the concentration of the compound of the formula I that binds to the human P2Y12 Recombinant Cell Membrane Binding Assay with 33P 2MeS-ADP.
Human P2Y12 Recombinant Cell Membrane Binding Assay
The ability of a test compound to bind to the P2Y12 receptor was evaluated in a recombinant cell membrane binding assay. In this competitive binding assay, the test compound competed against a radiolabeled agonist for binding to the P2Y12 receptor, expressed on the cell membrane. Inhibition of binding of the labeled material was measured and correlated to the amount and potency of the test compound. This binding assay is a modification of the procedure described by Takasaki, J. et. al, Mol. Pharmacol., 2001, Vol. 60, pg. 432.
As source of P2Y12, a membrane preparation was prepared from Chinese Hamster Ovary (CHO) cells with recombinant expression of the human P2Y12 receptor according to standard procedures.
To a 96-well microtiterplate the following were added: a) 24 μl of assay buffer (10 mM HEPES, 138 mM NaCl, […] KCl, 12 mM NaHCO3, 1 mM EDTA-Na, 0.1% BSA, pH 7.4) b) 1 μL compound in DMSO c) 50 μL P2Y12 CHO membrane (20 μg/ml) and after 15 min at RT d) 25 μL of 1.61 nM 33P 2MeS-ADP (Perkin Elmer NEN custom synthesis, specific activity ˜2100Ci/mmol) made in assay buffer.
After 20 min incubation at RT samples were transferred to 96-well microtiter filterplates (Millipore HTS GF/B), pre-wetted for 20 min with 300 μL of stop buffer (10 mM HEPES, 138 mM NaCl pH 7.4) and then filtered through completely with a Millipore plate vacuum. Next, wells were washed four times with 400 μl/well of stop buffer on a plate vacuum. The plate was disassembled and allowed to air dry overnight with the filter side up over night. The filter plates were snapped into adapter plates and 0.1 mL of Microscint 20 Scintillation Fluid (Perkin Elmer #6013621) was added to each well. The top of the filterplate was sealed with plastic plate covers. The sealed filterplate were incubated 2 hours at RT. A Microbeta Scintillation Counter was used to measure counts. The binding of compound is expressed as a % inhibition of specific binding, defined by subtraction of the background with 1 mM ADP.
Compounds were diluted as 10 mM DMSO stocks and tested in a four-point, five-fold dilution series run in triplicate beginning at 10 μM, final concentration. Data were analyzed using a four-parameter curve fit with a fixed minimum and maximum experimentally defined as the average positive and negative controls on each plate. The IC50 data of the above described human P2Y12 recombinant cell membrane binding assay for exemplary compounds of the present invention are shown in table 1.
On to `CCOC(=O)N1CCN(C(=O)[C@H](CCC(=O)O)NC(=O)c2cc(OC3(C(=O)O)CCC3)n(-c3ccccc3)n2)CC1` [Example 7, 4-((S)-4-Carboxy-2-{[5-(1-carboxy-cyclobutoxy)-1-phenyl-1H-pyrazole-3-carbonyl]-amino}-butyryl)-piperazine-1-carboxylic acid ethyl ester], for which the negative-log IC50 (pIC50) is 6.22.

As to `CCOC(=O)N1CCN(C(=O)[C@H](CC(C(=O)O)C(=O)O)NC(=O)c2cc(OC3(C(=O)OCC)CCC3)n(-c3ccccc3)n2)CC1` [Example 61, 2-[(S)-2-{[5-(1-Ethoxycarbonyl-cyclobutoxy)-1-phenyl-1H-pyrazole-3-carbonyl]-amino}-3-(4-ethoxycarbonyl-piperazin-1-yl)-3-oxo-propyl]-malonic acid], the pIC50 is 6.42.

As for `COc1cc(OC)cc(N2CCN(C(=O)[C@H](CCC(=O)O)NC(=O)c3cc(OCC(=O)C(C)(C)C)n(-c4ccccc4)n3)CC2)c1` [Example 105, (S)-5-[4-(3,5-Dimethoxy-phenyl)-piperazin-1-yl]-4-{[5-(3,3-dimethyl-2-oxo-butoxy)-1-phenyl-1H-pyrazole-3-carbonyl]-amino}-5-oxo-pentanoic acid], the pIC50 was 5.85.

As to `Cc1cc(COc2cc(C(=O)N[C@@H](CCC(=O)O)C(=O)N3CCN(c4cccc(C(F)(F)F)c4)CC3)nn2-c2ccccc2)no1` [Example 120, (S)-4-{[5-(5-Methyl-isoxazol-3-ylmethoxy)-1-phenyl-1H-pyrazole-3-carbonyl]-amino}-5-oxo-5-[4-(3-trifluoromethyl-phenyl)-piperazin-1-yl]-pentanoic acid], the negative logarithm of the IC50 (pIC50) was 5.46.

Take `CC(C)(C)C(=O)COc1cc(C(=O)N[C@@H](CCC(=O)O)C(=O)N2CCC(C(=O)c3cccc(Cl)c3)CC2)nn1-c1ccccc1` [Example 127, (S)-5-[4-(3-Chloro-benzoyl)-piperidin-1-yl]-4-{[5-(3,3-dimethyl-2-oxo-butoxy)-1-phenyl-1H-pyrazole-3-carbonyl]-amino}-5-oxo-pentanoic acid]: the pIC50 is 5.55.

Turning to `CCOC(=O)N1CCN(C(=O)[C@H](CNC(=O)C(=O)O)NC(=O)c2cc(OCC(=O)C(C)(C)C)n(-c3ccccc3)n2)CC1` [Example 134, 4-[(S)-2-{[5-(3,3-Dimethyl-2-oxo-butoxy)-1-phenyl-1H-pyrazole-3-carbonyl]-amino}-3-(oxalyl-amino)-propionyl]-piperazine-1-carboxylic acid ethyl ester], the pIC50 is 6.30.

Turning to `CCOC(=O)N1CCN(C(=O)[C@H](CNc2c(O)c(=O)c2=O)NC(=O)c2cc(OCC(=O)C(C)(C)C)n(-c3ccccc3)n2)CC1` [Example 136, 4-[(S)-2-{[5-(3,3-Dimethyl-2-oxo-butoxy)-1-phenyl-1H-pyrazole-3-carbonyl]-amino}-3-(2-hydroxy-3,4-dioxo-cyclobut-1-enylamino)-propionyl]-piperazine-1-carboxylic acid ethyl ester], the pIC50 is 5.46.

On to `CCCCOC(=O)N1CCN(C(=O)[C@H](CCC(=O)O)NC(=O)c2cc(OCC(=O)C(C)(C)C)n(-c3ccccc3)n2)CC1` [Example 147, 4-((S)-4-Carboxy-2-{[5-(3,3-dimethyl-2-oxo-butoxy)-1-phenyl-1H-pyrazole-3-carbonyl]-amino}-butyryl)-piperazine-1-carboxylic acid butyl ester], for which the pIC50 was 7.02.

Turning to `CC(C)(C)C(=O)COc1cc(C(=O)N[C@@H](CCC(=O)O)C(=O)N2CCN(C(=O)OC3CCC3)CC2)nn1-c1ccccc1` [Example 158, 4-((S)-4-Carboxy-2-{[5-(3,3-dimethyl-2-oxo-butoxy)-1-phenyl-1H-pyrazole-3-carbonyl]-amino}-butyryl)-piperazine-1-carboxylic acid cyclobutyl ester], the pIC50 is 6.58.

For `CCOC(=O)N1CCN(C(=O)[C@H](CC(=O)O)NC(=O)c2cc(OCC(=O)C(C)(C)C)n(-c3ccccc3)n2)CC1` [Example 163, 4-((S)-3-Carboxy-2-{[5-(3,3-dimethyl-2-oxo-butoxy)-1-phenyl-1H-pyrazole-3-carbonyl]-amino}-propionyl)-piperazine-1-carboxylic acid ethyl ester], the pIC50 was 6.70.

On to `CCOC(=O)N1CCN(C(=O)[C@H](CC(=O)NS(C)(=O)=O)NC(=O)c2cc(OCC(=O)C(C)(C)C)n(-c3ccccc3)n2)CC1` [Example 164, 4-((S)-2-{[5-(3,3-Dimethyl-2-oxo-butoxy)-1-phenyl-1H-pyrazole-3-carbonyl]-amino}-4-methanesulfonylamino-4-oxo-butyryl)-piperazine-1-carboxylic acid ethyl ester], for which the pIC50 was 5.80.

Another assay relates to human platelet rich plasma (ADP-induced platelet aggregation). Put plainly: Inhibition of human platelet aggregation, 96-well assay. The assay is classed as cell-based. As to conditions: 20 min, aggregation induced by ADP, 96-well plates, AUC of absorbance over 20 minutes. On the procedure: Inhibition of Human Platelet Aggregation
Alternatively to a binding assay which measures a compound's ability to bind to the P2Y12 receptor, the effect on cellular function was also determined. This ability of the compound was evaluated in two platelet aggregation assays: in 96-well plates and with the “Born”-method using single cuvettes.
Whole blood was collected from healthy volunteers using 20 ml syringes containing 2 ml of ACD-A Aqua-Citrat-Dextrose-A, Fresenius). The anticoagulated whole blood was transferred into 15 ml polypropylene conical tubes (10 ml per tube). The tubes were centrifuged for 15 minutes at 150×g at RT without using the centrifuge brake. This procedure leads to a pellet of cellular components and a supernatant of platelet rich plasma (PRP). The PRP layer was collected from each tube and pooled for each donor. To avoid carry over of cellular components following centrifugation, approximately 5 ml of PRP was left in the tube. The platelet concentration was determined using a Coulter Counter.
The 15 ml tubes containing the pellet of cellular components were centrifuged again for 10 minutes at 1940×g. This pelleted out most particulate blood constituents remaining, leaving a layer of Platelet Poor Plasma (PPP). The PPP was collected for each donor. The PRP layer, previously set aside, was diluted with PPP to a final concentration of approximately 3×E8 platelets/ml with the PPP.
The human platelet aggregation assay is performed in 96-well plates using a microtiter plate reader (SpectraMax Plus 384 with SoftMax Pro software from Molecular Devices). In the plate 15 μl of test compound at 10× final concentration in NaCl is mixed with 120 μl fresh PRP and incubated for 5 minutes. Following that incubation period, 15 μl of 40 μM ADP is added to the reaction mix. This addition of ADP is sufficient to induce aggregation in the absence of an inhibitor. The plates are then transferred to the microplate reader and aggregation is measured over 20 minutes. The instrument settings include: Absorbance at 650 nm, run time 20 minutes with readings in 1-minute intervals and 50 seconds shaking between readings all performed at 37° C. Results of the assay are expressed as % inhibition, and are calculated using area under curve (AUC) of the absorbance over 20 minutes.
The IC50 data of the above described platelet aggregation 96-well assay using human platelet rich plasma for exemplary compounds of the present invention are shown in table 2.
`CCOC(=O)N1CCN(C(=O)[C@H](CCC(=O)O)NC(=O)c2cc(OCC(=O)C3CC3)n(-c3ccccc3)n2)CC1` [Example 96, 4-((S)-4-Carboxy-2-{[5-(2-cyclopropyl-2-oxo-ethoxy)-1-phenyl-1H-pyrazole-3-carbonyl]-amino}-butyryl)-piperazine-1-carboxylic acid ethyl ester] gave a pIC50 of 5.59.

In turn, `CCOC(=O)N1CCN(C(=O)[C@H](CCC(=O)O)NC(=O)c2cc(OCC(=O)N[C@@H](C)C(=O)O)n(-c3ccccc3)n2)CC1` [Example 138, 4-[(S)-4-Carboxy-2-({5-[((S)-1-carboxy-ethylcarbamoyl)-methoxy]-1-phenyl-1H-pyrazole-3-carbonyl}-amino)-butyryl]-piperazine-1-carboxylic acid ethyl ester] gave a pIC50 of 5.83.

`CCOC(=O)N1CCN(C(=O)[C@H](CCC(=O)O)NC(=O)c2cc(OCC(=O)N[C@H](C)C(=O)O)n(-c3ccccc3)n2)CC1` [Example 139, 4-[(S)-4-Carboxy-2-({5-[((R)-1-carboxy-ethylcarbamoyl)-methoxy]-1-phenyl-1H-pyrazole-3-carbonyl}-amino)-butyryl]-piperazine-1-carboxylic acid ethyl ester] showed a pIC50 of 5.73.

In turn, `CCOC(=O)N1CCN(C(=O)[C@H](CCC(=O)O)NC(=O)c2cc(OCC(=O)NC3(C(=O)NC4CCC4)CCC3)n(-c3ccccc3)n2)CC1` [Example 167, 4-{(S)-4-Carboxy-2-[(5-{[1-(cyclobutyl-carbamoyl)-cyclobutylcarbamoyl]-methoxy}-1-phenyl-1H-pyrazole-3-carbonyl)-amino]-butyryl}-piperazine-1-carboxylic acid ethyl ester] showed a pIC50 of 5.66.

The record behind these values is patent US8598179B2, “Pyrazole-carboxamide derivatives as P2Y12 antagonists” (Sanofi, priority 2007, dated 2013).
